Drawing on ChEMBL document CHEMBL2321700, “Bodilisant-a novel fluorescent, highly affine histamine h3 receptor ligand” (ACS Med Chem Lett, 2013), this text covers Ki for 1 molecule.

The term Ki denotes a measure of affinity in units of concentration, obtained from inhibition or displacement.

In experiment [1] the target is D(1B) dopamine receptor (Homo sapiens, UniProt P21918). The experiment can be described thus: Displacement of [3H]SCH23390 from human dopamine D5 receptor expressed in HEK cells. Format: cell-based, HEK293. (In general: Displacement assays read how much labelled ligand stays bound in the presence of the test substance.)
Chain of D(1B) dopamine receptor (P21918 whole entry): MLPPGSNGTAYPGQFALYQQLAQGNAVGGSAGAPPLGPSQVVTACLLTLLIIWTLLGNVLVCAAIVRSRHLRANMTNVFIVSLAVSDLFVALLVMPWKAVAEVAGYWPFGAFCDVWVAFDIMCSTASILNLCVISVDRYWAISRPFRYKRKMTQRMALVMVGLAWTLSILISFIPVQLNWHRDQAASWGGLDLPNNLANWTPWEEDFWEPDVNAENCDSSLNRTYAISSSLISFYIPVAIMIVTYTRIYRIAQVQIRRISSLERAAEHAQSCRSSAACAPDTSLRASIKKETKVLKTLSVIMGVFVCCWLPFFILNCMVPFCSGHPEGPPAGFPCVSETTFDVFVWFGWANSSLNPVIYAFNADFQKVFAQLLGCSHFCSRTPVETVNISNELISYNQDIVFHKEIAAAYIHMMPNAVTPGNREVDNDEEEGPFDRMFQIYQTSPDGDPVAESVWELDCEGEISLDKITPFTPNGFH
Experiment [2] has as its target Histamine H4 receptor (Homo sapiens, UniProt Q9H3N8). The experiment can be described thus: Displacement of [3H]histamine from human histamine H4 receptor expressed in Sf9 cells.
Experiment [3] concerns the target Histamine H3 receptor (Homo sapiens, UniProt Q9Y5N1). The experiment can be described thus: Displacement of [3H]Nalpha-methylhistamine from human recombinant histamine H3 receptor expressed in HEK-293 cells. It counts as cell-based, HEK293.
Experiment [4] has as its target D(2) dopamine receptor (Homo sapiens, UniProt P14416). The experiment can be described thus: Displacement of [3H]spiperone from human dopamine D2short receptor expressed in CHO-K1 cells. Format: cell-based.
The target in experiment [5] is D(1A) dopamine receptor (Homo sapiens, UniProt P21728). The experiment can be described thus: Displacement of [3H]SCH23390 from human dopamine D1 receptor expressed in HEK cells. It counts as cell-based, HEK293.
Chain of D(1A) dopamine receptor (P21728 whole entry): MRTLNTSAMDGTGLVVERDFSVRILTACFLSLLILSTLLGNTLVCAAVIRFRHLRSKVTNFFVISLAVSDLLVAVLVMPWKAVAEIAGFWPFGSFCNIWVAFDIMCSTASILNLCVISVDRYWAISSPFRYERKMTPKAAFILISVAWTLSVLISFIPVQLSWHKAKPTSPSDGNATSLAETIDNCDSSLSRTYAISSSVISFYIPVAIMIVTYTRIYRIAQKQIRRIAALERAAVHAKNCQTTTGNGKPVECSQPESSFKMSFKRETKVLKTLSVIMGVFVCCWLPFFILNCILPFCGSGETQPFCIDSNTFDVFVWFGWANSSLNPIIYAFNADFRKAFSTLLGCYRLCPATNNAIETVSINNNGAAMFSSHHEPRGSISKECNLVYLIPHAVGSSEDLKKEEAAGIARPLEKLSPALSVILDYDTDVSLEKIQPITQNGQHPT
Experiment [6] has as its target Histamine H1 receptor (Homo sapiens, UniProt P35367). The experiment can be described thus: Displacement of [3H]pyrilamine from human histamine H1 receptor expressed in CHO-K1 cells. Format: cell-based.
Experiment [7] addresses D(3) dopamine receptor (Homo sapiens, UniProt P35462). The experiment can be described thus: Displacement of [3H]spiperone from human dopamine D3 receptor expressed in CHO-K1 cells. It counts as cell-based.

Chain of Histamine H1 receptor (P35367 whole entry): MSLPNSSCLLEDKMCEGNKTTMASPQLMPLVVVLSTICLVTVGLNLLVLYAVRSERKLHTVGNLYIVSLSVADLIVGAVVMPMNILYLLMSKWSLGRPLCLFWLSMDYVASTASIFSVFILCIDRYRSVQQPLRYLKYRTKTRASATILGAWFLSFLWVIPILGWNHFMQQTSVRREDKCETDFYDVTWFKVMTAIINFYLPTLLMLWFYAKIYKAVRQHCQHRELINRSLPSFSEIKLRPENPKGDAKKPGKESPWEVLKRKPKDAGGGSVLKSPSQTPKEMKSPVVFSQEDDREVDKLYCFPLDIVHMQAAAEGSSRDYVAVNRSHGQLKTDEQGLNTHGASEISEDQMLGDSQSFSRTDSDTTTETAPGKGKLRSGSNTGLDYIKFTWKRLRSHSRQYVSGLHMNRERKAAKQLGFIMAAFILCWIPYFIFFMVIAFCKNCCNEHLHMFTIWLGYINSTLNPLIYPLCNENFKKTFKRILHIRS
Chain of Histamine H4 receptor (Q9H3N8 whole entry): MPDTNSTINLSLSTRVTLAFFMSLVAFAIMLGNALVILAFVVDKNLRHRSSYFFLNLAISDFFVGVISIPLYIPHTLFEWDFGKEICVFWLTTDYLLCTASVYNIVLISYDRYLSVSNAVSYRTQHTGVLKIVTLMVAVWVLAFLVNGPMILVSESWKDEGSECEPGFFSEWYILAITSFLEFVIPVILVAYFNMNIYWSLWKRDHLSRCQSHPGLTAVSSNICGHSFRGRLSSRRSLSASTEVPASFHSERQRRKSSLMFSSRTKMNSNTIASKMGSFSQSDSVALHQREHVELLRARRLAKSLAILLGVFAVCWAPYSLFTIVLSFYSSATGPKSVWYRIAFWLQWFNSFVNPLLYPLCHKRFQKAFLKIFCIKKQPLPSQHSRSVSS
Chain of Histamine H3 receptor (Q9Y5N1 whole entry): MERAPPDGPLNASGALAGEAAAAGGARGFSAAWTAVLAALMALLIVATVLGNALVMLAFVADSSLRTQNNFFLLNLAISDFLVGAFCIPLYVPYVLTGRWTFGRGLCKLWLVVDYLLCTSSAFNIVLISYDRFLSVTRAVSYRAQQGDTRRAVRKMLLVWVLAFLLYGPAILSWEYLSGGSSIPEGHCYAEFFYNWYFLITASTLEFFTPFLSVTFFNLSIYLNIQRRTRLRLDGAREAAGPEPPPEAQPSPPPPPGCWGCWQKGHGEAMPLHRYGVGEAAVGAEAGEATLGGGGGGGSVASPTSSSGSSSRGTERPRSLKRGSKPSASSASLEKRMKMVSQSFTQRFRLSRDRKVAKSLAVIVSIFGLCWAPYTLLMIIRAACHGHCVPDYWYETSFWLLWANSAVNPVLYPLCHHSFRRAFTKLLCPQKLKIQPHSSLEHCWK
Chain of D(2) dopamine receptor (P14416 whole entry): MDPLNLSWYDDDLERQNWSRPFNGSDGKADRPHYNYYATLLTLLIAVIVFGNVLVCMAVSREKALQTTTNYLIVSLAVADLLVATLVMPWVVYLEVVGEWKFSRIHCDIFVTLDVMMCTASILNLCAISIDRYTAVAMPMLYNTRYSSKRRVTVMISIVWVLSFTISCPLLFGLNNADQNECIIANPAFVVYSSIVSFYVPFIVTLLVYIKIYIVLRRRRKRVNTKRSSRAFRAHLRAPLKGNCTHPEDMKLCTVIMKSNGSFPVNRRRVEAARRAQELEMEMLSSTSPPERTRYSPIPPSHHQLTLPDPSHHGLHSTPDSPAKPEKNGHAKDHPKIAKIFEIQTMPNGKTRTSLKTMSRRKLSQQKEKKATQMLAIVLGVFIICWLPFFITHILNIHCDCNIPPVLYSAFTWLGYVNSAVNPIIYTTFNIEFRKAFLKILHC
Chain of D(3) dopamine receptor (P35462 whole entry): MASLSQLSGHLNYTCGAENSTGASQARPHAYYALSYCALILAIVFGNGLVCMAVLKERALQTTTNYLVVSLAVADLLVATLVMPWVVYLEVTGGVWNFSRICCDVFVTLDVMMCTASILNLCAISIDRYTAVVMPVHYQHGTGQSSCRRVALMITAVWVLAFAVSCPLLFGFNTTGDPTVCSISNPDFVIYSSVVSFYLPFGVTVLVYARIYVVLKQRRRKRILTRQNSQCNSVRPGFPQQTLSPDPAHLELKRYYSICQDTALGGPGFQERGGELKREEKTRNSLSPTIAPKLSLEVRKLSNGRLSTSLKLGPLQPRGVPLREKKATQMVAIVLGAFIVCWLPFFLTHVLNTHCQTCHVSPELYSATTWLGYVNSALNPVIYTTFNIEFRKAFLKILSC

Regarding `CC1=CC(C)=[N+]2C1=C(c1ccc(OCCCN3CCCCC3)cc1)c1c(C)cc(C)n1[B-]2(F)F` [BODILISANT], the inhibition constant (Ki) in experiment [1] came out at 5.21 µM; in experiment [2], 7.48 µM; in experiment [3] it was 0.00651 µM; in experiment [4] it was 1.97 µM; in experiment [5] it was 12.5 µM; in experiment [6], 1.66 µM. Further, the inhibition constant Ki in experiment [7] is 1.49 µM.
